Assay results published in patent publication US12497403B2, “Factor XIa inhibitors” (Merck Sharp & Dohme LLC, priority 2021, dated 2025).
pIC50: −log10 of the molar value. ≈ marks a conversion by molar mass, not a printed value. Where two headings read alike, the source gives them in different places.

Tests used:
human Factor XIa = human Factor XIa (Homo sapiens, UniProt P03951); experiment: Factor XIa assay; assay type: biochemical; conditions: human Factor XIa 0.04 nM, GPR-AFC substrate, 25° C., pH 7.4; read-out: FXIa IC50
Description: (§1) The effectiveness of a compound of the present invention as an inhibitor of Coagulation Factor XIa can be determined using a relevant purified serine protease, and an appropriate synthetic substrate. The rate of hydrolysis of the chromogenic or fluorogenic substrate by the relevant serine protease was measured both in the absence and presence of compounds of the present invention. Assays were conducted at room temperature or at 37° C. […] A decrease in the rate of fluorescence change in the presence of inhibitor is indicative of enzyme inhibition. Such methods are known to one skilled in the art. The results of this assay are expressed as the half-maximal inhibitory concentrations (IC50), or the inhibitory constant, Ki.
Compounds were pre-incubated for 30 minutes at 25° C. with human (0.04 nM) Factor XIa in 50 mM HEPES buffer with 150 mM sodium chloride, 5 mM calcium chloride, 0.1% PEG 8000, pH 7.4. Factor XIa enzymatic activity was determined by addition of the substrate glycine-proline-arginine-7-amido-4-trifluoromethylcoumarin (GPR-AFC) and measurement of the fluorescence at 400/505 nm after a 60 minute incubation at 25° C. The % inhibition for each data point was calculated from the data and analyzed using the log (inhibitor) vs. response four parameters equation to determine the half-maximal inhibitory concentrations (IC50). The IC50 were converted to equilibrium inhibitory constants (Ki) using the Cheng-Prusoff equation.

Human plasma kallikrein = target: T1, Human plasma kallikrein (Homo sapiens, UniProt P03952); experiment: Kallikrein assay (plasma kallikrein); assay type: biochemical; conditions: purified Human plasma kallikrein 0.5 nM, Acetyl-K-P-R-AFC substrate, pH 7.4; read-out: pKal IC50
T1 construct: yields a heavy chain (371 amino acids) and a light chain (248 amino acids); purchased Enzyme Research Laboratories
Description: as §1, with “Kallikrein” for “Coagulation Factor XIa”, “constant.” for “constant,”
Kallikrein determinations were made in 50 mM HEPES buffer at pH 7.4 containing 150 mM NaCl, 5 mM CaCl2, and 0.1% PEG 8000 (polyethylene glycol; Fisher Scientific). Determinations were made using purified Human plasma kallikrein at a final concentration of 0.5 nM (Enzyme Research Laboratories) and the synthetic substrate. Acetyl-K-P-R-AFC (Sigma # C6608) at a concentration of […].
Activity assays were performed by diluting a stock solution of substrate at least tenfold to a final concentration≤ 0.2 Km into a solution containing enzyme or enzyme equilibrated with inhibitor. Times required to achieve equilibration between enzyme and inhibitor were determined in control experiments. The reactions were performed under linear progress curve conditions and fluorescence increase measured at 405 Ex/510 Em nm. Values were converted to percent inhibition of the control reaction (after subtracting 100% Inhibition value). IC50 was determined by inflection point from a four parameter logistic curve fit. Ki was calculated using the Cheng Prusoff equation. Ki=IC50/(1+([S]/Km)).

[1] = High-throughput (HT) solubility determination; assay type: physicochemical; conditions: kinetic from dmso stock
Description: The chromatographic system consists of an Agilent 1290 UPLC/DAD system and ChemStation software, both from Agilent Technologies, USA. The separations are carried out on a Supelco Ascentis Express C18, 30 mm×3.0 mm I.D., 2.7 μm HPLC column. The mobile phase consists of Potassium phosphate buffered at pH 7 (mobile phase A) and acetonitrile (mobile phase B). The column oven temperature is set to 30° C. and the UPLC analysis consists of a gradient. The injection volume is 2 μL and the spectrophotometric detection is set to 215 and 238 nm.
A 10 mM stock solution of the compound in DMSO is supplied for analysis. 2.5 μL of stock solution (10 mM) was diluted into 247.5 μL of organic co-solvents (10% MeCN/80% MeOH/10% DMSO, v/v/v) to create a standard solution of 100 μM. To create the solubility solutions, 4.1 μL of 10 mM DMSO stock solution was diluted into […] of phosphate buffered saline (PBS) (pH 7) solution. A second 4.1 μL aliquot of 10 mM DMSO stock solution was added to 196 μL of PBS (pH 2) solution. A third 4.1 uL aliquot of 10 mM DMSO stock solution was added to 196 uL of FaSSIF (pH 6.5) solution. […] The equilibrated solubility solutions were filtered by centrifugation using a filter (0.45 μm, polypropylene). 50 μL each of the 100 μM standard solution and the filtered equilibrated solubility solutions were placed into a 384 well plate, and the plate was subsequently heat sealed.
Each standard and solubility solution was analyzed by UPLC/DAD. The solubility value was calculated by the following equation: Solubility=(Peak area of sample/Peak area of standard) (Standard concentration)

[2] = FaSSIF pH 6.5, shaken 24 hours at 25° C., read-out: pH 6.5 (FaSSIF) solubility
[3] = phosphate buffered saline (PBS) pH 2, aqueous buffer, PBS pH 2, shaken 24 hours at 25° C., read-out: pH 2 solubility

human Factor XIa, sequence (P03951 388-625 limits assumed): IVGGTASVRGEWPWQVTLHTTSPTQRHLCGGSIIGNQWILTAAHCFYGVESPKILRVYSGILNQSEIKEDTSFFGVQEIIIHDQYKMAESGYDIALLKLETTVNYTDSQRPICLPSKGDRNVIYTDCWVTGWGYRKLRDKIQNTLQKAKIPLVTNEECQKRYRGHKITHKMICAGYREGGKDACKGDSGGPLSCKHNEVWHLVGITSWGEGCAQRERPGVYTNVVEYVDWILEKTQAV
human Factor XIa, sequence (P03951 19-387 partner limits assumed): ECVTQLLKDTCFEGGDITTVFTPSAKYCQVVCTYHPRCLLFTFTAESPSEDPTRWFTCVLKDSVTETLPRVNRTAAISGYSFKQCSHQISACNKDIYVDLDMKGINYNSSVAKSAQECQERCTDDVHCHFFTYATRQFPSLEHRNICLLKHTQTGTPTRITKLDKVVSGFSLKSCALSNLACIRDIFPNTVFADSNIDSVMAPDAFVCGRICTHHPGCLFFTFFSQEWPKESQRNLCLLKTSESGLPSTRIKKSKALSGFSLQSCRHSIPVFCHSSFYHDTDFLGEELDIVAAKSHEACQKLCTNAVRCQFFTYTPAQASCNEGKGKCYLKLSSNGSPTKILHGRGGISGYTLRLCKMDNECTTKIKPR
T1 sequence (P03952 391-638 limits assumed): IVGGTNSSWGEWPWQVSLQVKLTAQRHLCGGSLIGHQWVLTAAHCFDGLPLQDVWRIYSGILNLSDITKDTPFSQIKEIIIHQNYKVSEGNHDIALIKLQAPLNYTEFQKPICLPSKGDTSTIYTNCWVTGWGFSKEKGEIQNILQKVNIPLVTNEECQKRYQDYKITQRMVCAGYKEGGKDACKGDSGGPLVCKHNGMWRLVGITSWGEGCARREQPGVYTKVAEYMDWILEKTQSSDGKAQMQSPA
T1 sequence (P03952 20-390 partner limits assumed): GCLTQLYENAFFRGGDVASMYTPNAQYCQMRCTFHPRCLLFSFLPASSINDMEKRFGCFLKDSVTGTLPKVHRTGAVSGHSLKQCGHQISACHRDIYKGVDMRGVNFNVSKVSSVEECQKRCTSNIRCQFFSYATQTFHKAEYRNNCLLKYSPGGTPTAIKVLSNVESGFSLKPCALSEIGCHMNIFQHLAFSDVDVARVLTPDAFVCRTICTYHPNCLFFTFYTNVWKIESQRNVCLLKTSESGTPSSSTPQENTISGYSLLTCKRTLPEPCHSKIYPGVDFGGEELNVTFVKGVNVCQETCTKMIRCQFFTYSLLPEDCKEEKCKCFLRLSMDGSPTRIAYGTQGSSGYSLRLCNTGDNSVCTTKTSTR

pIC50 (human Factor XIa) | pIC50 (Human plasma kallikrein) | solubility kinetic at 24 h [1, 2] [µM] | solubility kinetic at 24 h [1, 3] [µM] | SMILES
9.41 | 6.26 | 141 (≈ 102 µg/mL) | 154 (≈ 111 µg/mL) | COC(=O)Nc1ccc2c(c1)NC(=O)C(C)(C)CCC[C@H](c1ccc(-c3cc(F)ccc3-n3cc(C(F)(F)F)cn3)c[n+]1[O-])c1nc-2c(C(=O)O)[nH]1 [Example 8, (R,Z)-2-(1^5-carboxy-2^4-((methoxycarbonyl)amino)-5,5-dimethyl-4-oxo-1^1H-3-aza-1(4,2)-imidazola-2(1,2)-benzenacyclononaphane-9-yl)-5-(5-fluoro-2-(4-(trifluoromethyl)-1H -pyrazol-1-yl)phenyl)pyridine 1-oxide]
9.80 | 8.36 | 170 | 145 | COC(=O)Nc1ccc2c(c1)NC(=O)C(C)(C)CCC[C@H](c1ccc(-c3cc(F)ccc3OC(F)F)c[n+]1[O-])c1nc-2c(C(=O)O)[nH]1.N (single isomer, unassigned) [Example 7]
9.60 | 8.96 | 138 (≈ 85.8 µg/mL) | 125 (≈ 77.8 µg/mL) | COC(=O)Nc1ccc2c(c1)NC(=O)C(C)(C)CCC[C@H](c1ccc(-c3cccc(Cl)c3F)c[n+]1[O-])c1nc-2c(C(=O)O)[nH]1 [Example 9, (R,Z)-2-(1^5-carboxy-2^4-((methoxycarbonyl)amino)-5,5-dimethyl-4-oxo-1^1H-3-aza-1(4,2)-imidazola-2(1,2)-benzenacyclononaphane-9-yl)-5-(3-chloro-2-fluorophenyl)pyridine 1-oxide]
